Measured values reported in patent publication US9040501B2, “Compositions and methods for treating cancer” (Eisai Inc., priority 2009, dated 2015).
Where two headings read alike, the source gives them in different places. Marks after values point to notes of the source that are not given here.

Tests used:
[1] = Stability in simulated gastric fluid at 37° C. (HPLC); assay type: physicochemical;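 as to % ER-876400 (peak retention time: 1.46 min): percent of total sample signal attributed to the analyte peak at each sampling time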
Source text: […]. See Kararli, T. T. Comparison of the GI anatomy, physiology, and biochemistry of humans and commonly used laboratory animals. BioPharm & DrugDispos. 16:351-380, 1995, which is hereby wholly incorporated by reference. The gastric pH in fasted monkeys has been reported to have a similar range of 1-3. See Kondo, H. et al. Characteristics of the gastric pH profiles of unfed and fed cynomolgus monkeys as pharmaceutical product development subjects. BioPharm & DrugDispos. 24:45-51, 2003, which is hereby wholly incorporated by reference.
Materials: Simulated gastric fluid (SGF) was prepared by mixing the following into 100 mL of HPLC grade (or purified) water: 200 mg of sodium chloride and 1.87 mL of a 37.52% HCl stock solution.
The HPLC analyses were conducted using a Waters UPLC solvent delivery system with Corona CAD detection. The HPLC Column (Waters Atlantis HHS T3 2.1×100 mm, 1.8 um) was maintained at 40° C. and preequilibrated with a solution containing 98% water and 2% acetonitrile. The temperature controlled auto-sampler was maintained at 37° C. The flow rate for the Water/MeCN mobile phase was 0.65 mL/min, with a gradient following sample injection (5 μL) as follows: […]
The Water/MeCN mobile phase was applied to the column with the above described flow rate and gradient and the HPLC chromatograms were collected. After 3.5 minutes, the column was reequilibrated with 98% water/2% MeCN for 1.5 minutes.

[2] = Pharmacokinetics in mice after IV and PO administrations; assay type: in vivo, male BALB-c mice
Method: […]. All doses were prepared in phosphate buffered saline (PBS) and were administered at a volume of 5 mL/kg. Five mice per group were used in these studies. Blood samples were taken serially from the tail vein of each mouse at predetermined timepoints. Blood samples from all mice in each group were pooled together prior to processing for plasma. The pooled blood samples were spun down within 30-60 minutes after withdrawal and the plasma was harvested and frozen for assay. After preparation and extraction the samples were assayed by LC/MS/MS.

murine lymphoma L1210 [3] = conditions: for Mean Liver wts (g) ± SD / Mean Spleen wts (g) ± SD: on autopsy; for % ILS (Increased Life Span): vs vehicle group
Method: Preparation of L1210 Cells: L1210 ascitic cells were prepared by passaging them in mice at least three times as follows. Each CD2F1 female mouse was intraperitoneally (IP) injected with about 10^5 L1210 ascitic cells. After one week, the mouse was sacrificed (asphyxiation via CO2). The mouse was placed on its back, its belly surface was cleaned with alcohol wipes, and a small incision was made into the peritoneal cavity. […] Diluted ascites (diluted 1:10 again) were counted on a hematocytometer and the number of cells per mL was calculated. About 10^5 L1210 cells were used for a subsequent passage for another mouse passage. Or, a stock of L1210 ascites in BSA solution was diluted to 1×10^4 cells/0.1 ml for use in the study mice.
(§1) The mice were prepared with intravenous (IV) injection of L1210 ascites (prepared as described above) one day prior to commencing the dosing. […] The total IV injection for all mice took about 50 minutes.
Decitabine was prepared fresh twice a day, just prior to dosing. All solutions were stored on ice while dosing. Mice were dosed (intraperitoneally (IP) or per os (orally, PO)) twice a day (8 hours apart) for 4 consecutive days.
(§2) Dead mice were autopsied and observed for the presence of tumors in organs.
Preparation of study mice with IV injection of L1210 ascites took about 60 minutes. […] All solutions were stored on ice while dosing. Mice were dosed (IP or PO) twice a day (7 or 8 hours apart) for 4 consecutive days.

murine lymphoma L1210 [4] = conditions: for Mean Survival (days) ± SD: twice a day (8 hours apart), 4 days
Method: Or, a stock of L1210 ascites in BSA solution was diluted to 1×10^4 cells/0.1 ml for use in the study mice.
as §1
All solutions were stored on ice while dosing. Mice were dosed (intraperitoneally (IP) or per os (orally, PO)) twice a day (8 hours apart) for 4 consecutive days.
as §2

cytidine deaminase (CDA) = cytidine deaminase (CDA) (Homo sapiens (Human), UniProt P32320); experiment: Effect of ER-876437 on the half-life of decitabine in the presence of CDA in Tris-HCl buffer at 37° C.; assay type: biochemical; conditions: for half-life at 0.2 mM: pH 7.4, Estimated T1/2 of decitabine
Method: The solvent delivery system employed an HPLC quaternary pump, low pressure mixing. An autosampler having a variable loop, 0.1 to 100 μL range and temperature controlled thermostat was used. […] Degassed HPLC grade water and degassed HPLC grade acetonitrile were used as solvents for the mobile phases. […] [table]

[5] = male, BALB-c, mouse, plasma, 10 mg/kg IV
[6] = male, BALB-c, mouse, plasma, 10 mg/kg IV, read-out: Plasma concentrations
[7] = male, BALB-c, mouse, plasma, 10 mg/kg PO, read-out: Plasma concentrations
[8] = Veh/decitabine 0.1 mg/kg PO (7 hours apart)
[9] = Veh/decitabine 0.1 mg/kg PO (8 hr.)
[10] = Veh/decitabine 0.1 mg/kg PO, on autopsy

Chain of cytidine deaminase (CDA) (P32320 whole entry): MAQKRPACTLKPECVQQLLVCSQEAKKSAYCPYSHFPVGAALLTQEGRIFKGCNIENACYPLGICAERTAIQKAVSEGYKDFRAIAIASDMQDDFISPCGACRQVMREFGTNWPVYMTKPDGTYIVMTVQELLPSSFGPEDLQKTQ

SMILES: O=C1NCC=CCN1[C@@H]1O[C@H](CO)[C@@H](O)[C@H]1O [ER-876400, (Z)-3,4-dihydro-1-((2R,3R,4S,5R)-tetrahydro-3,4-dihydroxy-5-(hydroxymethyl)furan-2-yl)-1H-1,3-diazepin-2(7H)-one, reference compound]
- % ER-876400 (peak retention time: 1.46 min) ([1]; SGF at 37° C., analysis time 0:00:30): 19.59%
- % ER-876400 (peak retention time: 1.46 min) ([1]; SGF at 37° C., analysis time 0:06:08): 17.04%
- % ER-876400 (peak retention time: 1.46 min) ([1]; SGF at 37° C., analysis time 0:11:45): 16.72%
- % ER-876400 (peak retention time: 1.46 min) ([1]; SGF at 37° C., analysis time 0:17:23): 15.17%
- % ER-876400 (peak retention time: 1.46 min) ([1]; SGF at 37° C., analysis time 0:23:01): 14.20%
- % ER-876400 (peak retention time: 1.46 min) ([1]; SGF at 37° C., analysis time 0:28:38): 13.23%
- % ER-876400 (peak retention time: 1.46 min) ([1]; SGF at 37° C., analysis time 0:34:16): 12.51%
- % ER-876400 (peak retention time: 1.46 min) ([1]; SGF at 37° C., analysis time 0:39:54): 14.05%
- % ER-876400 (peak retention time: 1.46 min) ([1]; SGF at 37° C., analysis time 0:45:33): 11.42%
- % ER-876400 (peak retention time: 1.46 min) ([1]; SGF at 37° C., analysis time 0:51:10): 10.71%
- % ER-876400 (peak retention time: 1.46 min) ([1]; SGF at 37° C., analysis time 0:56:48): 8.87%
- % ER-876400 (peak retention time: 1.46 min) ([1]; SGF at 37° C., analysis time 1:02:27): 9.14%
- % ER-876400 (peak retention time: 1.46 min) ([1]; SGF at 37° C., analysis time 1:08:07): 8.81%
- % ER-876400 (peak retention time: 1.46 min) ([1]; SGF at 37° C., analysis time 1:13:46): 7.66%
- % ER-876400 (peak retention time: 1.46 min) ([1]; SGF at 37° C., analysis time 1:19:23): 4.05%
- % ER-876400 (peak retention time: 1.46 min) ([1]; SGF at 37° C., analysis time 1:25:01): 6.44%
- % ER-876400 (peak retention time: 1.46 min) ([1]; SGF at 37° C., analysis time 1:30:38): 5.92%
- % ER-876400 (peak retention time: 1.46 min) ([1]; SGF at 37° C., analysis time 1:36:16): 5.72%
- % ER-876400 (peak retention time: 1.46 min) ([1]; SGF at 37° C., analysis time 1:41:53): 5.69%
- % ER-876400 (peak retention time: 1.46 min) ([1]; SGF at 37° C., analysis time 1:47:32): 4.98%
- % ER-876400 (peak retention time: 1.46 min) ([1]; SGF at 37° C., analysis time 1:53:10): 4.51%
- % ER-876400 (peak retention time: 1.46 min) ([1]; SGF at 37° C., analysis time 1:58:49): 3.85%
- % ER-876400 (peak retention time: 1.46 min) ([1]; SGF at 37° C., analysis time 2:04:28): 3.59%
- % ER-876400 (peak retention time: 1.46 min) ([1]; SGF at 37° C., analysis time 2:21:24): 2.82%
- % ER-876400 (peak retention time: 1.46 min) ([1]; SGF at 37° C., analysis time 2:49:37): 1.52%
- % ER-876400 (peak retention time: 1.46 min) ([1]; SGF at 37° C., analysis time 3:17:48): 0.81%
- % ER-876400 (peak retention time: 1.46 min) ([1]; SGF at 37° C., analysis time 3:23:28): 0.62%
- % ER-876400 (peak retention time: 1.46 min) ([1]; SGF at 37° C., analysis time 3:46:00): 0.39%
- % ER-876400 (peak retention time: 1.46 min) ([1]; SGF at 37° C., analysis time 3:51:38): 0.25%
- % ER-876400 (peak retention time: 1.46 min) ([1]; analysis time 0:00:00, initial sample in water): 84.04%
- time to degrade by 50% ([1]; simulated gastric fluid (pH 1.45) at 37° C.): less than 30 seconds
- AUC0-∞ ([2]; 10 mg/kg IV): 20.999 µg·h/mL
- AUC0-∞/D ([2]; 10 mg/kg IV): 2100 ng · hr/mL/D
- AUCExtrap ([2]; 10 mg/kg IV): 10.3%
- CL ([2]; 10 mg/kg IV): 0.48 L/h/kg
- dose-normalized exposures (AUC0-∞) ([2]; 10 mg/kg IV): 2100 ng·h/mL per mg/kg
- t1/2 ([2]; 10 mg/kg IV): 16.1 h
- Plasma concentrations ([2]; 10 mg/kg IV, 2 hr): 1753 ^a ng/mL
- AUC(0-t) ([2]; 10 mg/kg PO): 13.16 µg·h/mL
- AUC(0-inf) [2, 5]: 21 µg·h/mL
- clearance [2, 5]: 0.48 L/h/kg
- half-life [2, 5]: 16.1 h
- concentration at 0.167 hr [2, 6]: 19.9 µg/mL
- concentration at 0.5 hr [2, 6]: 10.2 µg/mL
- concentration at 1 hr [2, 6]: 4.21 µg/mL
- concentration at 4 hr [2, 6]: 0.495 µg/mL
- concentration at 6 hr [2, 6]: 0.118 µg/mL
- concentration at 8 hr [2, 6]: 0.059 µg/mL
- concentration at 24 hr [2, 6]: 0.093 µg/mL
- AUC(0-t) ([2]; male, BALB-c, mouse, plasma, 10 mg/kg IV, read-out: AUC0-t): 18.8 µg·h/mL
- Vd ([2]; male, BALB-c, mouse, plasma, 10 mg/kg IV, read-out: Vss): 3.2 L/kg
- Cmax ([2]; male, BALB-c, mouse, plasma, 10 mg/kg PO): 7.86 µg/mL
- bioavailability ([2]; male, BALB-c, mouse, plasma, 10 mg/kg PO vs IV, calculated based on AUC0-t, read-out: F (bioavailability)): 69.9%
- concentration at 0.167 hr [2, 7]: 7.1 µg/mL
- concentration at 0.5 hr [2, 7]: 7.86 µg/mL
- concentration at 1 hr [2, 7]: 4.67 µg/mL
- concentration at 2 hr ([2]; male, BALB-c, mouse, plasma, 10 mg/kg PO, 2 hr, read-out: Plasma concentrations): 1.75 µg/mL
- concentration at 4 hr [2, 7]: 0.32 µg/mL
- concentration at 6 hr [2, 7]: 0.087 µg/mL
- concentration at 8 hr [2, 7]: 0.044 µg/mL
- concentration at 24 hr [2, 7]: 0.264 µg/mL
- AUC(0-t) ([2]; male, BALB-c, mouse, plasma, 10 mg/kg PO, read-out: AUC0-t): 13.2 µg·h/mL

SMILES: Nc1ncn([C@H]2C[C@H](O)[C@@H](CO)O2)c(=O)n1 [decitabine, 5-aza-2′-deoxycytidine]
- difference in survival when dosed 7 or 8 hours apart (murine lymphoma L1210 [3]; 0.1 mg/kg decitabine PO twice a day, 4 days): no difference in survival
- Mean Survival (days) ± SD (murine lymphoma L1210 [3]; Veh/decitabine 0.1 mg/kg IP, twice a day (7 hours apart), 4 days): 13.6 ± 0.55 days
- Mean Liver wts (g) ± SD (murine lymphoma L1210 [3]; [8]): 2.02 ± 0.31 g
- Mean Spleen wts (g) ± SD (murine lymphoma L1210 [3]; [8]): 0.36 ± 0.11 g
- % ILS (Increased Life Span) (murine lymphoma L1210 [3]; [8]): 47.50%
- Mean Liver wts (g) ± SD (murine lymphoma L1210 [3]; [9]): 1.81 ± 0.41 g
- Mean Spleen wts (g) ± SD (murine lymphoma L1210 [3]; [9]): 0.33 ± 0.06 g
- Mean Survival (days) ± SD (murine lymphoma L1210 [3]; Veh/decitabine 0.1 mg/kg PO (8 hr.), twice a day (8 hours apart), 4 days): 11.6 ± 0.55 days
- % ILS (Increased Life Span) (murine lymphoma L1210 [3]; [9]): 45.00%
- Mean Survival (days) ± SD (murine lymphoma L1210 [3]; Veh/decitabine 0.1 mg/kg PO, twice a day (7 hours apart), 4 days): 11.8 ± 0.84 days
- Mean Survival (days) ± SD (murine lymphoma L1210 [4]; Veh/decitabine 0.1 mg/kg IP): 13.4 ± 0.89 days
- Mean Liver wts (g) ± SD (murine lymphoma L1210 [4]; [10]): 2.17 ± 0.1 g
- Mean Spleen wts (g) ± SD (murine lymphoma L1210 [4]; [10]): 0.34 ± 0.04 g
- Mean Survival (days) ± SD (murine lymphoma L1210 [4]; Veh/decitabine 0.1 mg/kg PO): 11.2 ± 0.45 days
- % ILS (Increased Life Span) (murine lymphoma L1210 [4]; Veh/decitabine 0.1 mg/kg PO, vs vehicle group): 51.35%
- Estimated T1/2 of decitabine (cytidine deaminase (CDA); Decitabine in Tris-HCl buffer at 37° C. (absence of CDA)): 9 h
- Estimated T1/2 of decitabine (cytidine deaminase (CDA); Decitabine with CDA and ER-876437 in Tris-HCl buffer at 37° C.): 9 h
- half-life at 0.2 mM (cytidine deaminase (CDA); Tris-HCl buffer, Decitabine in Tris-HCl buffer at 37° C. (absence of CDA)): 9 h
- half-life at 0.2 mM (cytidine deaminase (CDA); cytidine deaminase (CDA) in Tris-HCl buffer, Decitabine with CDA and ER-876437 in Tris-HCl buffer at 37° C.): 9 h
- half-life at 0.2 mM (cytidine deaminase (CDA); cytidine deaminase (CDA) in Tris-HCl buffer, Decitabine with CDA in Tris-HCl buffer at 37° C.): ~0.383 h
